Experimental data reported in article PMC4859512, “Polyamino-Isoprenic Derivatives Block Intrinsic Resistance of P. aeruginosa to Doxycycline and Chloramphenicol In Vitro” (PLoS ONE, 2016).

Test system: efflux of 1,2'-dinaphthylamine in strain PA01
Experiment: Real-time efflux assay (1,2'-dinaphthylamine, glucose-triggered)
Format: cell-based, Pseudomonas aeruginosa
Procedure: The experiments were performed as previously described with slight modifications. For each strain, 20 mL of MHII was inoculated with a single colony from a fresh plate and grown at 37°C to the stationary phase. […] They were then loaded over night with the dye 1,2’-dinaphthylamine (TCI-Europe SA, Zwijndrecht, Belgium) at a final concentration of 32 μM, in the presence of 5 μM CCCP. […] In a 96-well Greiner black microplate (Greiner, Courtaboeuf, France), a gradient of inhibitor (when used) was prepared in PPB, and bacteria were added (100 μL per well). The fluorescence of the cell suspension, was monitored each 22 sec during 1200 sec on an Infinite M200 microplate reader (Tecan; excitation wavelength 370 nm and emission wavelength 420 nm). In order to trigger the transport, glucose (50 mM final concentration) is added at 200 sec. The maximum efficacy of the efflux is the difference between the value obtained without and with glucose addition after 1200 sec. For each compound, the efficiency of efflux inhibition is calculated as the difference between the maximum efficacy of transport and the residual transport obtained at various concentrations of the compound.

In the case of `CC(C)=CCCC(C)=CCCC(C)=CCNCCCNCCCCNCCCN` [Compound 3], the “rank of efflux inhibition among compounds 1-4 and PAßN” value is reported as “the most efficient”, the IC50 (Pseudomonas aeruginosa, 2.5x10^8 cfu/mL, read-out: concentration needed to inhibit 50% of 1,2'DNA efflux) is reported as 31.2 µM and the inhibition at 31.25 µM (Pseudomonas aeruginosa, compound at 31.25μM) is reported as 60%. The efflux inhibition (compound at 15.6μM) was “fifty percent efflux inhibition” and the efflux inhibition (compound at 125μM) was “completely abolished the transportation of dye”.
